# Test results reported in patent US9682033B2, “Methods of treating postherpetic neuralgia with a topical formulation of a spiro-oxindole compound” (Teva Pharmaceuticals International GmbH, priority 2015, dated 2017).
# Key:
# [1] = Joint penetration and tissue distribution study in domestic pig, multiple-dose topical administration (Biological Example 2); assay type: in vivo
# Procedure: This study was conducted to evaluate the joint penetration, systemic plasma exposure and tissue distribution of the spiro-oxindole compound in domestic pigs following topical administration of a pharmaceutical composition utilized in the methods of the invention. Fifteen female pigs were used in this study with three pigs in each group. Beginning on Day 1, a pharmaceutical composition of the invention was topically applied to the left radiocarpal joint (carpus) and tibiotarsal joint (hock) twice daily (bid) for 17 days (34 applications) for Groups 1-4 and once daily (qd) for 17 days (17 applications) for Group 5. Pre-dose blood samples (prior to morning dosing) was collected on Days 2, 7, 10, 14 and 17. A full pharmacokinetic sampling was performed on Day 17 (post am dosing) at the following time points: 1, 2, 4, 8 and 12 hr. On the day of necropsy, Day 18, blood was collected prior to euthanasia, each pig was humanely euthanized and dorsal skin and muscle, liver, kidney, heart, lung, brain, intestine, fat, ovaries, urinary bladder, sciatic nerve, and skin, muscle, synovial membrane, and synovial fluid from all 4 joints (2 treated, left carpus and hock, and 2 untreated, right carpus and hock) was collected.
# Doses were calculated by measuring the joint circumference and joint width (to include ˜2 cm above and below the joint) to calculate the total surface area for each individual dose. Group 1 received a 2% pharmaceutical composition of the invention and the dose volume for Group 1 was calculated using the total surface area and the designated dose volume of 3 μL/cm^2. The total dose volume was then converted from μL to mL to estimate the dose weight in grams, based on the composition density of 1 g/cm^3. Following is an example (not actual measurements) of calculating the dose:
# For Groups 2-5, the dose volume was calculated using the total surface area and the designated dose volume of 3 μL/cm^2 (Groups 2, 3 and 5) or 1 μL/cm^2 (Group 4). […]
# minipig hepatocytes = assay: In vitro metabolic stability in hepatocytes (minipig); assay type: in vitro ADME; details: ^14C-spiro-oxindole compound
# From the text: A total of 8 metabolites were identified in samples (in vitro and in vivo) from rats, dogs, and humans. All metabolites found in humans were also found in the Good Laboratory Practice (GLP) toxicology species, the rat. Following oral administration of spiro-oxindole compound to humans, spiro-oxindole compound and 3 of its metabolites (M1, M5, and M6) were measurable. A similar metabolic profile was observed following topical administration to humans, albeit at much lower plasma concentrations, except metabolite M1 was not detected following human topical administration.
# in vivo = assay: in vivo; parameters: species or system rats; details: rat, po
# Procedure: The no-observed-adverse-effect level (NOAEL) was determined to be 150 mg/kg/day in both males and females. […] The NOAEL for maternal toxicity was 50 mg/kg/day. […] The NOAEL for embryo-fetal toxicity was 150 mg/kg/day.
# CYP450 2D6 = CYP450 2D6 (Homo sapiens, UniProt P10635); assay: Reaction phenotyping with recombinant human CYP450 enzymes: CYP2D6; assay type: in vitro ADME; details: recombinant human CYP450 2D6
# CYP3A4 [2] = target: CYP3A4 (Homo sapiens, UniProt P08684); assay: Drug-drug interaction study in healthy subjects: midazolam (CYP3A4 substrate) pharmacokinetics (Biological Example 5); details: human, in vivo
# From the text: This was a single center, open-label, 1-sequence drug-drug interaction study in 32 healthy adult male and female subjects. The study consisted of a 28-day screening period, a 10-day inpatient treatment period, and a follow-up visit. Subjects meeting the study inclusion/exclusion requirements were admitted to the clinical research unit on day −1 and were confined until day 10.
# Blood samples were collected for the assessment of the pharmacokinetics of midazolam and omeprazole.
# The primary pharmacokinetic endpoints were the geometric mean ratios (90% confidence intervals [CIs]) for Cmax, AUC0-t, and AUC0-inf for midazolam and omeprazole on day 9 versus day 1.
# Blood samples were collected for the assessment of the pharmacokinetics of the major metabolites of midazolam (1-OH-midazolam) and omeprazole (5-OH-omeprazole), and for the spiro-oxindole compound. Further secondary pharmacokinetic variables included Cmax, tmax, AUC0-t, AUC0-inf, CL/F, λz, t1/2, and % AUCext for 1-OH-midazolam and 5-OH-omeprazole, on days 1 and 9, and Cmax, morning predose concentrations (Ctrough), average plasma concentration over the dosing interval (Cave), and area under the plasma concentration-time curve over the dosing interval (AUC0-τ) were presented for the spiro-oxindole compound.
# Descriptive statistics (n, mean, geometric mean, standard deviation [SD], % CV, median, minimum, and maximum) were used to summarize plasma midazolam, omeprazole and their metabolites, and the spiro-oxindole compound concentration for all subjects overall at each scheduled time point. Descriptive statistics (as noted above) were also used to summarize plasma omeprazole, 5-OH-omeprazole, and the spiro-oxindole compound concentration for all subjects overall by CYP2C19 genotype at each scheduled time point. Pharmacokinetic parameters were derived by noncompartmental analysis. Descriptive statistics (as noted above) were used to summarize the calculated pharmacokinetic parameters for midazolam, omeprazole and their metabolites, and the spiro-oxindole compound by treatment for all subjects. Descriptive statistics (as noted above) were also used to summarize the calculated pharmacokinetic parameters for omeprazole, 5-OH-omeprazole, and the spiro-oxindole compound by treatment and CYP2C19 genotype. Plots of geometric mean and individual plasma concentrations and of select pharmacokinetic parameters for midazolam, omeprazole and their metabolites and the spiro-oxindole compound at select sampling times were provided. Additionally, plots of individual select pharmacokinetic parameters by CYP2C19 phenotype for omeprazole at select time points were provided.
# CYP3A4 [3] = assay: In vitro CYP3A4 induction; assay type: in vitro ADME
# [4] = domestic pig, topical administration to a joint
# Sequence of CYP450 2D6 (P10635 whole entry): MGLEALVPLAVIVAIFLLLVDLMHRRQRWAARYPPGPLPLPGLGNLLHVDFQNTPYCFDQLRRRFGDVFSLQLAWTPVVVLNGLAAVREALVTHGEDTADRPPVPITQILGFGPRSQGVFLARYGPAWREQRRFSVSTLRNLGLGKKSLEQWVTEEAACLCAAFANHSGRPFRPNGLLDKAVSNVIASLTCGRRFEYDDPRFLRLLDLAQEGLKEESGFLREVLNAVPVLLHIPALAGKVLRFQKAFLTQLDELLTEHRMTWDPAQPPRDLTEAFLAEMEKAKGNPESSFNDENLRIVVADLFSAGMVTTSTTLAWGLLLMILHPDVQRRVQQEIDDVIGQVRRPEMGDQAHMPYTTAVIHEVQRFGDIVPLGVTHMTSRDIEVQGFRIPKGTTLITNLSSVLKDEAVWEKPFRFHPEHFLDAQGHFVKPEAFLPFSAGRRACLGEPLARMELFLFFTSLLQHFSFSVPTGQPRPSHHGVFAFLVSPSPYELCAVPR
# Sequence of CYP3A4 (Homo sapiens, UniProt P08684) (P08684 whole entry): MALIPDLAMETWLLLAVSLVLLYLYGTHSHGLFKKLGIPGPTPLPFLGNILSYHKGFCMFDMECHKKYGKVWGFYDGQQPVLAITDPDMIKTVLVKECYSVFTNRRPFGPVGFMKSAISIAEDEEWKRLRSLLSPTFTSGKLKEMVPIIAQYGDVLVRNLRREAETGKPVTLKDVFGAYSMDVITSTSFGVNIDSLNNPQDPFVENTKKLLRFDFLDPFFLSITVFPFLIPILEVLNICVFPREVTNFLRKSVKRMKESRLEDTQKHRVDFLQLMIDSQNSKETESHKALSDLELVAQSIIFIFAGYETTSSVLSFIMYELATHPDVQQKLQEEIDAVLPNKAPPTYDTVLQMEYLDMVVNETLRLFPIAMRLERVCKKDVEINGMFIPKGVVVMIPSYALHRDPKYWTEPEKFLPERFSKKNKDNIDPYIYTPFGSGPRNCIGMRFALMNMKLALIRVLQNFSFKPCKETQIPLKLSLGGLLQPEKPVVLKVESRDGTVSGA
smiles,measurement,setting,value
"O=C1N(Cc2ccc(C(F)(F)F)o2)c2ccccc2[C@]12COc1cc3c(cc12)OCO3 [spiro-oxindole compound, (S)-1′-{[5-(trifluoromethyl)furan-2-yl]methyl}spiro[furo[2,3-f][1,3]benzodioxole-7,3′-indol]-2′(1′H)-one]",concentration in the synovial membrane tissue of the treated joint (in words),[1]; [4],micromolar concentrations
same,plasma concentrations (in words),[1]; [4],nanomolar
same,spiro-oxindole compound concentration in liver tissue,"[1]; pig G2 (#4-6): 4% composition, 3 μL/cm^2 bid topical 17 days, individual animals",0/0
same,in vitro metabolic stability in hepatocytes,minipig hepatocytes,18%
same,NOAEL,in vivo; both sexes,150 mg/kg/day
same,AUC(0-t),"in vivo; female, 50 mg/kg/day",18000 ng·h/mL
same,Cmax,"in vivo; female, 50 mg/kg/day",1440 ng/mL
same,AUC(0-t),"in vivo; female, 150 mg/kg/day",41500 ng·h/mL
same,Cmax,"in vivo; female, 150 mg/kg/day",3380 ng/mL
same,NOAEL,"in vivo; female, NOAEL for embryo-fetal toxicity",150 mg/kg/day
same,NOAEL,"in vivo; female, NOAEL for maternal toxicity",50 mg/kg/day
same,contribution to spiro-oxindole compound metabolism,CYP450 2D6,likely to play a less extensive role
same,effect on midazolam pharmacokinetics (in words),CYP3A4 [2],no relevant effect on midazolam pharmacokinetics
same,induction of CYP3A4,CYP3A4 [3],may also be a strong inducer of CYP3A4 with an activation potency similar to rifampicin
